Results on 12 compounds are retold here after patent US11739098B2 (BRISTOL-MYERS SQUIBB COMPANY, priority 2017, dated 2023).

In general, IC50 refers to the point on the concentration scale where inhibition reaches its midpoint. Higher therefore signals a need for much substance.

Common to all, as to assay type: cell-based
One assay concerns the target T1, human TLR7 (Homo sapiens, UniProt Q9NYK1).
T1 construct: host or cells: HEK-Blue cells (HEK293-derived reporter line)
T1 sequence (Q9NYK1 27-1049): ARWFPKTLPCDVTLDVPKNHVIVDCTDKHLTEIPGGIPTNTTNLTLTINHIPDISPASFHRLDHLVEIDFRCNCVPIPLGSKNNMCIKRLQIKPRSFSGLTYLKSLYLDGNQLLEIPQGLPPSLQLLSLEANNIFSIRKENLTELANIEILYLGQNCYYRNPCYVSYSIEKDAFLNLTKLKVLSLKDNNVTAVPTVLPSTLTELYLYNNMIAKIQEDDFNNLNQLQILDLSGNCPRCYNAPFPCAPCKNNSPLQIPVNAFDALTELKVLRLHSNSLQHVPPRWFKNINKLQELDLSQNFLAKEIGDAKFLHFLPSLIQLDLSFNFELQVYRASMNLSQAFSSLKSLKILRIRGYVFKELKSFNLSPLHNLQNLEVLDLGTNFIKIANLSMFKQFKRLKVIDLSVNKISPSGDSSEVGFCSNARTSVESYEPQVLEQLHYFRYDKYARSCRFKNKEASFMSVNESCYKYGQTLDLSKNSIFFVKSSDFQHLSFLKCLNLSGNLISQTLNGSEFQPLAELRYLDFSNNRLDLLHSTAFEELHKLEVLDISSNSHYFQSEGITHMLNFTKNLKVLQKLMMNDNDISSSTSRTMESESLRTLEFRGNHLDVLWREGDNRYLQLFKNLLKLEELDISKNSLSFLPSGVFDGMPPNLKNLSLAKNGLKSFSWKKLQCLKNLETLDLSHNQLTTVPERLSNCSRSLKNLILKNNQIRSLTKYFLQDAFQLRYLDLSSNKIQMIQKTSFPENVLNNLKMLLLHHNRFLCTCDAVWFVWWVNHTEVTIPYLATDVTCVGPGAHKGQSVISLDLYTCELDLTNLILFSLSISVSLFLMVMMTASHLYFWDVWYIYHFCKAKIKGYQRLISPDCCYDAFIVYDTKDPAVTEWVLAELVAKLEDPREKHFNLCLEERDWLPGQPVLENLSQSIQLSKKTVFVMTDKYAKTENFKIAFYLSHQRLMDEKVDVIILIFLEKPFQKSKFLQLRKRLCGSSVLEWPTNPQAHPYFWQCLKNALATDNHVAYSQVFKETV
The experiment in a line: TLR7 inhibition reporter assay (HEK-Blue cells, SEAP reporter, gardiquimod stimulation). The following applies: HEK-Blue cells overexpressing human TLR7, SEAP reporter, gardiquimod 7.5 μM. The essentials:
(§1)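 Percent inhibition of agonist-induced SEAP secretion in HEK-Blue cells after 22 h at 37 °C. Stimuli: 7.5 μM gardiquimod, 15.9 μM R848, 5 nM ODN2006 for TLR7, TLR8 and TLR9, added after 30 min compound exposure over a 0.05 nM–50 μM range.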

In another assay the target is T2, human TLR8 (Homo sapiens, UniProt Q9NR97).
T2 construct: host or cells: HEK-Blue cells (HEK293-derived reporter line)
T2 sequence (Q9NR97 27-1041): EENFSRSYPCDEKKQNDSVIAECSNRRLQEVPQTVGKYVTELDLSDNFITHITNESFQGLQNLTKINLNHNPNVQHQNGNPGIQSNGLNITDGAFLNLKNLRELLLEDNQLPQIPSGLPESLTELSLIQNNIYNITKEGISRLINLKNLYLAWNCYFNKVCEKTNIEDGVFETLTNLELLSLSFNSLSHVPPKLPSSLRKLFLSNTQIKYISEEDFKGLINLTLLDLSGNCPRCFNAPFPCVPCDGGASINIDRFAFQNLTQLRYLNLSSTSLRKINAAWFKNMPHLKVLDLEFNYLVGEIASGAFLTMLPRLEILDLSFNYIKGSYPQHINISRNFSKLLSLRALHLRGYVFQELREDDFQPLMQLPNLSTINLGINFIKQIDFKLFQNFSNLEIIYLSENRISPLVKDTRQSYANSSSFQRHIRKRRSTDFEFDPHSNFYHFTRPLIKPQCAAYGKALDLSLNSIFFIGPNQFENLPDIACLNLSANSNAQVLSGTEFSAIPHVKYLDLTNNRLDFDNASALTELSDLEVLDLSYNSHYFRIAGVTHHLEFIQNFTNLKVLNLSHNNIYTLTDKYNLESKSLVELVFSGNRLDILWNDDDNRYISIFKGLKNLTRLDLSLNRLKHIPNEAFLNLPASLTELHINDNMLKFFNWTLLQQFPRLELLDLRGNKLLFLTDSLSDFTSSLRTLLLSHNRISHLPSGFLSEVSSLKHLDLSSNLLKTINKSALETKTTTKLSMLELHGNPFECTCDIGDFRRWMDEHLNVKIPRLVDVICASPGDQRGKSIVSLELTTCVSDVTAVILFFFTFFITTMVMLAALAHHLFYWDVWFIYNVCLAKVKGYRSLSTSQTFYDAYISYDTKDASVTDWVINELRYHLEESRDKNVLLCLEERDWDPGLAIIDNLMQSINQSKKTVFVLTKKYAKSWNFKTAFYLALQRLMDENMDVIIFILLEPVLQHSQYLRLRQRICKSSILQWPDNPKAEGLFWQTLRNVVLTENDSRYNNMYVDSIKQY
Description: TLR8 inhibition reporter assay (HEK-Blue cells, SEAP reporter, R848 stimulation). The following applies: HEK-Blue cells overexpressing human TLR8, SEAP reporter, R848 15.9 μM. The essentials:
as §1

The target of another assay is T3, human TLR9 (Homo sapiens, UniProt Q9NR96).
T3 construct: host or cells: HEK-Blue cells (HEK293-derived reporter line)
T3 sequence (Q9NR96 26-1032): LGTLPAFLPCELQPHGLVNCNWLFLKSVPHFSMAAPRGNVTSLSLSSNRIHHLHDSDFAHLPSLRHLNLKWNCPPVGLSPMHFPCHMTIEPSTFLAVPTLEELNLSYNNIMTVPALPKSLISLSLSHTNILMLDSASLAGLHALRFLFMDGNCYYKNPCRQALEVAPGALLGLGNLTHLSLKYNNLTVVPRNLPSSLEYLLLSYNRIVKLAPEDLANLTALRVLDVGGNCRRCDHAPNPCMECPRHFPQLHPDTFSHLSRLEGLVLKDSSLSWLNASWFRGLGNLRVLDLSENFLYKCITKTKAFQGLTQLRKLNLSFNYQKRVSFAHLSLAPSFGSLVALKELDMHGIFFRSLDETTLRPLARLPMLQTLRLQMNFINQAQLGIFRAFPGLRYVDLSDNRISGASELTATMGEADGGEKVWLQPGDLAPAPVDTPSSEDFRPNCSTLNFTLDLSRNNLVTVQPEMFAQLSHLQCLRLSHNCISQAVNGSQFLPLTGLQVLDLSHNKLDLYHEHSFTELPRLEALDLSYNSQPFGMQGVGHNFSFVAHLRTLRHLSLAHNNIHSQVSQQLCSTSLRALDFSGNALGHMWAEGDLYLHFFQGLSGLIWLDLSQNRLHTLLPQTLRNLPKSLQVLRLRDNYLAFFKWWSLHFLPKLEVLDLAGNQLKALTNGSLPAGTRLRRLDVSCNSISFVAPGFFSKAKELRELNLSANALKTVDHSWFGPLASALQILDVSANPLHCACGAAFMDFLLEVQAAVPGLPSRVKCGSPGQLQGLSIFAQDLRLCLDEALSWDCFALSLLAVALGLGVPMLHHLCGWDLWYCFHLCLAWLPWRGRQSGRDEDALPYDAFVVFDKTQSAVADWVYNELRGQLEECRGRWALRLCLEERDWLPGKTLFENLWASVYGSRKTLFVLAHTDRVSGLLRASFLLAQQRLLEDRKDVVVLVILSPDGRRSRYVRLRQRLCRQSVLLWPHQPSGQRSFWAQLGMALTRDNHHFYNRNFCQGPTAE
Description: TLR9 inhibition reporter assay (HEK-Blue cells, SEAP reporter, ODN2006 stimulation). The following applies: HEK-Blue cells overexpressing human TLR9, SEAP reporter, ODN2006 5 nM. The essentials: as §1
On the technique in general: Reporter assays use an easily measured gene product as a stand-in for the process of interest.

Each structure is given as a SMILES string.

Take `COc1cc(-c2[nH]c3ccc(C4CCN(C5COC5)CC4)cc3c2C(C)C)nn2ncnc12` [Example 732, 6-(3-isopropyl-5-(1-(oxetan-3-yl)piperidin-4-yl)-1H-indol-2-yl)-8-methoxy-[1,2,4]triazolo[1,5-b]pyridazine]: the half-maximal inhibitory concentration (IC50) on human TLR7 is less than 100 nM; against human TLR8, less than 100 nM; at human TLR9 it was 1000 to 50000 nM.

Take `CC(C)c1c(-c2cnc3ccnn3c2)[nH]c2ccc(C3CCN(Cc4cnn(C)c4)CC3)cc12` [Example 932, 6-(3-isopropyl-5-(1-((1-methyl-1H-pyrazol-4-yl)methyl)piperidin-4-yl)-1H-indol-2-yl)pyrazolo[1,5-a]pyrimidine]: the concentration for half-maximal inhibition (IC50) lay within 100 to 1000 nM against human TLR7, 1000 to 50000 nM against human TLR8 and 100 to 1000 nM at human TLR9.

Consider `Cc1cc(-c2[nH]c3ccc(C4CCN(CCS(C)(=O)=O)CC4)cc3c2C(C)C)cn2nnnc12` [Example 789, 6-(3-isopropyl-5-(1-(2-(methylsulfonyl)ethyl)piperidin-4-yl)-1H-indol-2-yl)-8-methyltetrazolo[1,5-a]pyridine], for which the values for the IC50 on human TLR7, against human TLR8 and against human TLR9 were less than 100 nM, less than 100 nM and 1000 to 50000 nM, respectively.

For the compound `Cc1cc2nnnn2cc1-c1[nH]c2ccc(C3CCN(CCS(C)(=O)=O)CC3)cc2c1C(C)C` [Example 790, 6-(3-isopropyl-5-(1-(2-(methylsulfonyl)ethyl)piperidin-4-yl)-1H-indol-2-yl)-7-methyltetrazolo[1,5-a]pyridine], the IC50 is less than 100 nM against human TLR7, less than 100 nM against human TLR8 and 1000 to 50000 nM on human TLR9.

Take `CC(C)c1c(-c2ccnc3[nH]ncc23)[nH]c2cc(F)c(C3CCN(C4CCN(C(C)C)CC4)CC3)cc12` [Example 830, 4-(6-fluoro-3-isopropyl-5-(1′-isopropyl-[1,4′-bipiperidin]-4-yl)-1H-indol-2-yl)-1H-pyrazolo[3,4-b]pyridine]: the IC50 against human TLR7, on human TLR8 and against human TLR9 was less than 100 nM each time.

`CC(C)c1c(-c2ccc3onc(N)c3c2)[nH]c2ccc(C3CCNCC3)cc12` [Example 7, 5-(3-isopropyl-5-(piperidin-4-yl)-1H-indol-2-yl)benzo[d]isoxazol-3-amine]: the IC50 was less than 100 nM against human TLR7, less than 100 nM on human TLR8 and 100 to 1000 nM against human TLR9.

For `CC(C)c1c(-c2ccnc3[nH]ncc23)[nH]c2ccc(C3CCN(C(=O)CNCCCN(C)C)CC3)cc12` [Example 575, 2-((3-(dimethylamino)propyl)amino)-1-(4-(3-isopropyl-2-(1H-pyrazolo[3,4-b]pyridin-4-yl)-1H-indol-5-yl)piperidin-1-yl)ethan-1-one], the IC50 against human TLR7 is less than 100 nM; at human TLR8, less than 100 nM; on human TLR9, 100 to 1000 nM.

`CC(C)c1c(-c2cn(C)c3ncccc23)[nH]c2ccc(C3CCN(C4CCS(=O)(=O)CC4)CC3)cc12` [Example 784, 4-(4-(3-isopropyl-2-(1-methyl-1H-pyrrolo[2,3-b]pyridin-3-yl)-1H-indol-5-yl)piperidin-1-yl)tetrahydro-2H-thiopyran 1,1-dioxide]: the IC50 on human TLR7 is less than 100 nM; against human TLR8 it was less than 100 nM; against human TLR9, 1000 to 50000 nM.

Consider `CC(C)c1c(-c2ccn3cnnc3c2)[nH]c2ccc(C3CCN(C4COC4)CC3)cc12` [Example 736, 7-(3-isopropyl-5-(1-(oxetan-3-yl)piperidin-4-yl)-1H-indol-2-yl)-[1,2,4]triazolo[4,3-a]pyridine], for which the results for the IC50 against human TLR7, against human TLR8 and against human TLR9 were less than 100 nM, 100 to 1000 nM and 1000 to 50000 nM, respectively.

With `CC(=O)N1CCCN(CC(=O)N2CCC(c3ccc4[nH]c(-c5ccnc6[nH]ncc56)c(C(C)C)c4c3)CC2)CC1` [Example 586, 2-(4-acetyl-1,4-diazepan-1-yl)-1-(4-(3-isopropyl-2-(1H-pyrazolo[3,4-b]pyridin-4-yl)-1H-indol-5-yl)piperidin-1-yl)ethan-1-one], the IC50 on human TLR7 was less than 100 nM; against human TLR8, less than 100 nM; against human TLR9, 1000 to 50000 nM.

As for `Cc1cc(-c2[nH]c3ccc(C4CCN(C(=O)CN(C)C)CC4)cc3c2C(C)C)cn2nncc12` [Example 467, 2-(dimethylamino)-1-(4-(3-isopropyl-2-(4-methyl-[1,2,3]triazolo[1,5-a]pyridin-6-yl)-1H-indol-5-yl)piperidin-1-yl)ethan-1-one], the IC50 against human TLR7 lay within 100 to 1000 nM; against human TLR8, 1000 to 50000 nM; on human TLR9, 1000 to 50000 nM.

Consider `COc1cc(-c2[nH]c3ccc(C4CCN(CC(C)(C)O)CC4)cc3c2C(C)C)nn2ncnc12` [Example 749, 1-(4-(3-isopropyl-2-(8-methoxy-[1,2,4]triazolo[1,5-b]pyridazin-6-yl)-1H-indol-5-yl)piperidin-1-yl)-2-methylpropan-2-ol], for which the IC50 against human TLR7 was less than 100 nM; against human TLR8 it was less than 100 nM; at human TLR9, 1000 to 50000 nM.
